In patent US20260306464A1, “LINAPRAZAN GLURATE FOR TREATING GASTROESOPHAGEAL REFLUX DISEASE (GERD)” (Cinclus Pharma Holding AB (publ), priority 2023, published 2026):

Columns and labels:
[1] = Dynamic vapour sorption (DVS) analysis; type: physicochemical
Procedure: In some embodiments, Form 1 of the HCl salt of linaprazan glurate is stable at a relative humidity up to 90% at a temperature of 25° C.

[2] = LEED study: endoscopic healing of erosive esophagitis / LA grade improvement after 4 weeks; type: in vivo, human; settings: lansoprazole 30 mg QD
Source text: The severity of esophagitis is typically indicated using the Los Angeles (LA) classification of reflux esophagitis, which is based on an endoscopic assessment of the patient. The LA grade scoring system divides reflux esophagitis into four categories (LA grade A to D) based on the extent of esophageal mucosal breaks. […] LA grade C esophagitis is defined as one or more mucosal breaks that are continuous between the tops of two mucosal folds, but which involves less than 75% of the esophageal circumference. The most severe form, LA grade D esophagitis, is defined as one or more mucosal breaks involving at least 75% of the esophageal circumference (Lundell et al., Gut 1999, vol. 45, p. 172-180).
As used herein, the terms “improvement of the LA grade” and “LA grade improvement” refer to one or more steps from one LA grade to a lower LA grade (such as from grade D to grade C, B or A) or to being healed. In some embodiments, the improvement of the LA grade is 1 step. In some embodiments, the improvement of the LA grade is 2 steps. In some embodiments, the improvement of the LA grade is 3 steps. In some embodiments, the improvement of the LA grade is 4 steps.
The study included patients with erosive esophagitis (eGERD). Patients were divided into two cohorts, one with patients having moderate to severe eGERD (LA grade C/D) and one with patients having milder eGERD (LA grade A/B) with a history of only partial response to PPI-treatment. The primary endpoint of the study was to support dose selection of linaprazan glurate for the phase III program in eGERD, through central assessment of healing of erosive esophagitis after four weeks of treatment. The sample size, i.e., the number of patients needed, for measuring dose related efficacy was based on the patient cohort with moderate to severe eGERD. After initial endoscopy and other screening procedures, 248 patients were randomized equally into one of five treatment groups, receiving either four weeks treatment with linaprazan glurate in four dose levels, or four weeks lansoprazole in the approved standard eGERD healing dose. Thereafter, an endoscopic evaluation of healing was performed, where healing was defined as no presence of esophageal erosions, i.e., no erosive damage to the esophageal mucosa. After the endoscopic evaluation, all patient groups received lansoprazole for four weeks in a maintenance phase. A retrospective central review of the endoscopy findings was performed, and 162 patients were available for evaluation of the primary endpoint. All enrolled 248 patients were included in the safety analysis.
(§1) The study was a randomized, double-blind, active comparator-controlled study with a parallel group design including four arms with linaprazan glurate and one arm with lansoprazole. Pharmacokinetic (PK) blood sampling pre-dose, close before the first and the second dose administration was performed at Day 7, Day 14 and Day 28 visits days in all patients. 248 patients with erosive esophagitis due to GERD LA grade C or D and patients with erosive esophagitis due to GERD LA grade A or B with at least partial symptom response but still endoscopically unhealed after 8 weeks history of standard treatment healing course with PPI, were randomized.
(§2) Randomization to one of the treatments with linaprazan glurate 25 mg, 50 mg, 75 mg, 100 mg twice daily (BID), or lansoprazole 30 mg once daily (QD) was based on a 1:1:1:1:1 scheme. One site could not enroll more than about 20% of the overall number of patients (48 patients per site).
The duration of each patient's participation in the study, including screening, blind treatment period and open-label treatment period, was approximately 60 days. The patients were randomized for 4 weeks (28 days, −2/+5 days) of double-blind treatment and were provided with IMP for 35 days (including one additional blister pack dispensed at Visit 2/Day 0) to allow for treatment up to the visit window. […]

[3] = LEED study: safety and tolerability (adverse events); settings: TEAE, LAN 30 mg QD
[4] = LEED study: heartburn assessed by mRESQ-eDiary; type: in vivo, human
Source text: Relief of reflux-related symptoms may be assessed based on the modified Reflux Symptom Reflux Questionnaire-electronic Diary (mRESQ-eDiary), which is an electronic symptom diary developed for use in partial responders to proton pump inhibitors. mRESQ-eD has three domains (i.e., heartburn, other GERD signs/symptoms and regurgitations/reflux) and eight items (Andrae et al., Clin. Transl. Gastroenterol. 2020, 11(1): e00117).
as §1, §2
The duration of each patient's participation in the study, including screening, blind treatment period and open-label treatment period, was approximately 60 days. The patients were randomized for 4 weeks (28 days, −2/+5 days) of double-blind treatment and were provided with IMP for 35 days (including one additional blister pack dispensed at Visit 2/Day 0) to allow for treatment up to the visit window. […] Following the endoscopic evaluation, all patients received subsequent 4 weeks of open-label treatment with lansoprazole 30 mg QD. Repeated symptom evaluation to detect symptom pattern was assessed during this period.
Four doses of linaprazan glurate (25 mg, 50 mg, 75 mg, 100 mg, and dummies) were administered as tablets twice daily. The active comparator lansoprazole 30 mg and its dummy were administered as capsules once daily in the morning. The study drugs were taken with 100 mL of noncarbonated water at least 30 minutes prior to meals. The duration of double-blind treatment was 28 days −2/+5 days. To blind treatment, each patient received 2 tablets (containing doses of linaprazan glurate (LG) or its dummy) and one capsule (containing lansoprazole or its dummy) in the morning and 2 tablets (containing doses of linaprazan glurate (LG) or its dummy) in the evening, according to the scheme below:
A secondary objective of the study was the safety and tolerability of the four dose levels of linaprazan glurate and lansoprazole, with lansoprazole serving as the active comparator. Another secondary objective of the study was the reflux related symptom pattern during the initial 4 weeks treatment with four dose levels of linaprazan glurate and with lansoprazole, and the symptom pattern during the subsequent additional 4 weeks (weeks 5-8) open-label treatment with lansoprazole 30 mg QD. Heartburn-free 24-hour days and 24-hour days with at most mild heartburn symptoms were assessed based on modified eDiary (mRESQ-eD), including splits into day- and nighttime evaluations.
Reflux related symptoms were assessed based on a modified RESQ-eDiary (mRESQ-eD). Patients were asked to report every 12-hours, once before the morning dose and once before the evening dose of the Investigational Medicinal Product (IMP).

[5] = week 4, erosive patients all LA grades, LAN 30 mg QD (N = 20)

Cc1cccc(C)c1CNc1cc(C(=O)NCCOC(=O)CCCC(=O)O)cn2c(C)c(C)nc12
water uptake ([1]; 90% RH): about 0.2%
water content of the crystals on humidity changes ([1]; about 30% to about 80% RH): remains substantially constant
hygroscopicity ([1]; dynamic vapour sorption): very low hygroscopicity

Cc1c(OCC(F)(F)F)ccnc1C[S+]([O-])c1nc2ccccc2[nH]1 (centres unmarked) [lansoprazole, reference compound]
four-week healing rate ([2]; LA grade A/B): 81%
healing rate ([2]; LA grade A/B/C/D, 4 weeks, FIG. 8): 69%
mean LA grade improvement ([2]; LA grade C/D, 4 weeks, FIG. 5): 2.1
four-week healing rate ([2]; LA grade C/D): 38%
COVID-19 (%) [3]: 4.0%
COVID-19 events [3]: 2 events
Constipation (%) [3]: 0.0%
Constipation events [3]: 0 events
Headache (%) [3]: 2.0%
Headache events [3]: 1 events
Nausea (%) [3]: 8.0%
Nausea events [3]: 4 events
heartburn severity, rank among groups ([4]; FAS Erosive, first week, morning and evening, lansoprazole 30 mg QD): highest heartburn severity
severity grade of heartburn, rank among groups ([4]; FAS, first week, morning and evening, lansoprazole 30 mg QD): highest severity grade of heartburn
heartburn-free days, rank among groups ([4]; LA Grade A/B, week 4, lansoprazole 30 mg QD): most heartburn-free days
heartburn-free days, rank among groups ([4]; LA Grade A/B, week 6 open-label, lansoprazole group): highest
heartburn-free days, rank among groups ([4]; LA Grade C/D, week 2-4, lansoprazole 30 mg QD): lowest percentage of heartburn-free days
heartburn-free days, rank among groups ([4]; LA Grade C/D, week 5-8 open-label, lansoprazole group): lowest percentage of heartburn-free days
% at most mild symptoms 24-hour days (mean) [4, 5]: 88%
% heartburn-free 24-hour days (mean) [4, 5]: 52%
Patients (%) totally free from heartburn [4, 5]: 32%
Patients (%) with at most mild heartburn [4, 5]: 79%
Patients (%) with non-mild heartburn [4, 5]: 21%
